In BindingDB's records for patent US20240109915 (Pfizer, 2024):
pIC50: −log10 of the molar value.

Biological target: Acetyl-CoA carboxylase 1 (Homo sapiens, UniProt Q13085)
Experiment: Inhibition of the Activity of ACC1
Protocol: The direct inhibition of ACC1 for the compounds of the present invention was determined using preparations of recombinant human ACC1 (rhACC1) (SEQ ID NO. 1). Preparation of rhACC1: Two liters of SF9 cells, infected with recombinant baculovirus containing full length human ACC1 cDNA, were suspended in ice-cold lysis buffer (25 mM Tris, pH 7.5; 150 mM NaCl; 10% glycerol; 5 mM imidazole (EMD Bioscience; Gibbstown, NJ); 2 mM TCEP (BioVectra; Charlottetown, Canada); Benzonase nuclease (10000 U/100 g cell paste; Novagen; Madison, WI); EDTA-free protease inhibitor cocktail (1 tab/50 ml; Roche Diagnostics; Mannheim, Germany). Cells were lysed by 3 cycles of freeze-thaw and centrifuged at 40,000×g for 40 minutes (4° C.). Supernatant was directly loaded onto a HisTrap FF crude column (GE Healthcare; Piscataway, NJ) and eluted with an imidazole gradient up to 0.5 M over 20 column volumes (CV). ACC1-containing fractions were pooled and diluted 1:5 with 25 mM Tris, pH 7.5, 2 mM TCEP, 10% glycerol and direct loaded onto a CaptoQ (GE Healthcare) column and eluted with an NaCl gradient up to 1 M over 20 CV's. Phosphate groups were removed from purified ACC1 by incubation with lambda phosphatase (100 U/10 μM target protein; New England Biolabs; Beverly, MA) for 14 hours at 4° C.; okadaic acid was added (1 μM final concentration; Roche Diagnostics) to inhibit the phosphatase. […]

Row | Structure (SMILES) | pIC50
1 | Cn1ncc2c(Cl)cc(C(=O)N3CCC4(CC3)CC(=O)c3nc(C(C)(C)C)sc3C4)cc21 [US20240109915, Example 73] | 7.64
2 | Cc1nn(C)c2c(Cl)cc(C(=O)N3CCC4(CC3)CC(=O)c3nc(C(C)(C)C)sc3C4)cc12 [US20240109915, Example 84] | 7.03
